Measurements as given in patent publication US20240351997A1, “NOVEL PARP7 INHIBITOR AND USE THEREOF” (SHANGHAI QILU PHARMACEUTICAL RESEARCH AND DEVELOPMENT …, priority 2021, published 2024).

Biological target: PARP7 (Homo sapiens (Human), UniProt Q7Z3E1)
Test: In vitro enzymology experiment of PARP7 (enzymatic inhibition)
Type: biochemical
Description: II. In Vitro Enzymology Experiment of PARP2, 3, 5A, 5B, 7, 12, and 15
1. Preparation of 384-well histone-coated plate: 25 μL of histone solution was added to each well, and the plate was incubated overnight at 4° C.
2. Preparation of PBST buffer, blocking buffer, and assay buffer
3. The 384-well histone-coated plate was washed three times with PBST buffer. The plate was blocked by 50 μL of blocking buffer for 1 hour at room temperature. The plate was then washed three times with PBST buffer.
2000× compound was prepared in a 96-well source plate. 50 nL of the compound was transferred from the source plate to a 96-well intermediate plate, and 39.95 μL of assay buffer was added to each well. The plate was shaken well and centrifuged at 1000 rpm for 1 minute.
5 μL of compound DMSO solution was transferred to each well.
An enzyme mixture was incubated at 25° C. for 10 minutes.
10 μL of the enzyme mixture was added, and incubated with the compound at room temperature for 10 minutes.
10 μL of assay buffer was added to the negative control well of the assay plate.
The plate was then washed three times with PBST buffer.
25 μL of Stre-HRP was added.
The plate was incubated at room temperature for 1 hour and washed three times with PBS buffer.
25 μL of QuantaRed Enhancer mix was added. The plate was incubated for 10 minutes.
2.5 μL of QuantaRed Stop Solution was added to terminate the peroxidase reaction, and the plate was shaken for 10 to 30 seconds.
7. Paradigm was used to read the plate immediately to detect the readings at Ex550/Em620.
Using equation (1) to fit the data in Excel to obtain inhibition values
Using equation (2) to fit the data in XL-Fit to obtain IC50 values
Y is the percentage of inhibition, and X is the compound concentration.

PARP7, sequence (Q7Z3E1 whole entry): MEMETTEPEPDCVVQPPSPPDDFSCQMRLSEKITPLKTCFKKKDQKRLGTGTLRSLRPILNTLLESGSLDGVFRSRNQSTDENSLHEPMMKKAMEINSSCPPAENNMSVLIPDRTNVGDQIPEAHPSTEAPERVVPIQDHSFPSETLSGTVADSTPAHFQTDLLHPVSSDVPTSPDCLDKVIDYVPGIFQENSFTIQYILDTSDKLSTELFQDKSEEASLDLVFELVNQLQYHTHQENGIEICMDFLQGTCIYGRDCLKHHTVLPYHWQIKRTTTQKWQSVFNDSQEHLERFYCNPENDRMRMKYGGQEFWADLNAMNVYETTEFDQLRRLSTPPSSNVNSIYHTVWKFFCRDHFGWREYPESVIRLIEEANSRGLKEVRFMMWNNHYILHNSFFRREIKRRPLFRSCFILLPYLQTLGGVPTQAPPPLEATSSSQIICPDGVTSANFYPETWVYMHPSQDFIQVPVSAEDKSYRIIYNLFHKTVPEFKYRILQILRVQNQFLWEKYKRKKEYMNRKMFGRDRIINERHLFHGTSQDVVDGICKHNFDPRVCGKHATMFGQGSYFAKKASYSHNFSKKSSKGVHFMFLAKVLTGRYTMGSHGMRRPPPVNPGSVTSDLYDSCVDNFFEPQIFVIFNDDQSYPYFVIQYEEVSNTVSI

Compound | IC50 [nM]
O=C(CCO[C@@H]1CCC[C@@H]1c1c[nH]c(=O)c(C(F)(F)F)c1)N1CCN(c2ncc(C(F)(F)F)cn2)CC1 [Example 47, 5-((1R,2R)-2-(3-Oxo-3-(4-(5-(trifluoromethyl)pyrimidin-2-yl)piperazin-1-yl)propoxy)cyclopentyl)-3-(trifluoromethyl)pyridin-2(1H)-one] | 7.22
C[C@@H](Cc1c[nH]c(=O)c(C(F)(F)F)c1)OC(=O)N1CCN(c2ncc(C(F)(F)F)s2)CC1 [Example 49, (S)-1-(6-Oxo-5-(trifluoromethyl)-1,6-dihydropyridin-3-yl)propan-2-yl 4-(5-(trifluoromethyl)thiazol-2-yl)piperazine-1-carboxylate] | 0.76
C[C@@H](Cc1c[nH]c(=O)c(C(F)(F)F)c1)OC(=O)N1CCN(c2ncc(C(F)F)cn2)CC1 [Example 50, (S)-1-(6-Oxo-5-(trifluoromethyl)-1,6-dihydropyridin-3-yl)propan-2-yl 4-(5-(difluoromethyl)pyrimidin-2-yl)piperazine-1-carboxylate] | 0.52
C[C@@H](Cc1c[nH]c(=O)c(C(F)(F)F)c1)OC(=O)N[C@H]1CCN(c2ncc(C(F)(F)F)cn2)C1 [Example 51, (S)-1-(6-Oxo-5-(trifluoromethyl)-1,6-dihydropyridin-3-yl)propan-2-yl ((S)-1-(5-(trifluoromethyl)pyrimidin-2-yl)pyrrolidin-3-yl)carbamate] | 1.34
C[C@@H](Cc1c[nH]c(=O)c(C(F)(F)F)c1)OC(=O)N[C@@H]1CCN(c2ncc(C(F)(F)F)cn2)C1 [Example 52, (S)-1-(6-Oxo-5-(trifluoromethyl)-1,6-dihydropyridin-3-yl)propan-2-yl ((R)-1-(5-(trifluoromethyl)pyrimidin-2-yl)pyrrolidin-3-yl)carbamate] | 1.18
C[C@@H](Cc1c[nH]c(=O)c(C(F)(F)F)c1)OC(=O)N1CC[C@@H](Nc2ncc(C(F)(F)F)cn2)C1 [Example 53, (S)-1-(6-Oxo-5-(trifluoromethyl)-1,6-dihydropyridin-3-yl)propan-2-yl (R)-3-((5-(trifluoromethyl)pyrimidin-2-yl)amino) pyrrolidine-1-carboxylate] | 2.3
C[C@@H](Cc1c[nH]c(=O)c(C(F)(F)F)c1)OC(=O)N1CC(Nc2ncc(C(F)(F)F)cn2)C1 [Example 54, (S)-1-(6-Oxo-5-(trifluoromethyl)-1,6-dihydropyridin-3-yl)propan-2-yl 3-((5-(trifluoromethyl)pyrimidin-2-yl)amino) azetidine-1-carboxylate] | 6.23
C[C@@H](Cc1c[nH]c(=O)c(C(F)(F)F)c1)OC(=O)NC1CCN(c2ncc(C(F)(F)F)cn2)CC1 [Example 55, (S)-1-(6-Oxo-5-(trifluoromethyl)-1,6-dihydropyridin-3-yl)propan-2-yl (1-(5-(trifluoromethyl)pyrimidin-2-yl)piperidin-4-yl)carbamate] | 3.42
O=C(O[C@H]1CCC[C@@H]1c1c[nH]c(=O)c(C(F)(F)F)c1)N1CCN(c2ncc(C(F)(F)F)cn2)CC1 [Example 56, (1S,2R)-2-(6-Oxo-5-(trifluoromethyl)-1,6-dihydropyridin-3-yl)cyclopentyl 4-(5-(trifluoromethyl)pyrimidin-2-yl)piperazine-1-carboxylate] | 2.27
O=C(CO[C@H]1CCC[C@@H]1c1c[nH]c(=O)c(C(F)(F)F)c1)N1CCN(c2ncc(C(F)(F)F)cn2)CC1 [Example 57, 5-((1R,2S)-2-(2-Oxo-2-(4-(5-(trifluoromethyl)pyrimidin-2-yl)piperazin-1-yl)ethoxy)cyclopentyl)-3-(trifluoromethyl)pyridin-2(1H)-one] | 0.74
O=C(COCC1CCCC1c1c[nH]c(=O)c(C(F)(F)F)c1)N1CCN(c2ncc(C(F)(F)F)cn2)CC1 (centres unmarked) [Example 58, 5-(2-((2-Oxo-2-(4-(5-(trifluoromethyl)pyrimidin-2-yl)piperazin-1-yl)ethoxy)methyl)cyclopentyl)-3-(trifluoromethyl)pyridin-2(1H)-one] | 3.18
O=C(OCC1CCCC1c1c[nH]c(=O)c(C(F)(F)F)c1)N1CCN(c2ncc(C(F)(F)F)cn2)CC1 (centres unmarked) [Example 59, (2-(6-Oxo-5-(trifluoromethyl)-1,6-dihydropyridin-3-yl)cyclopentyl)methyl 4-(5-(trifluoromethyl)pyrimidin-2-yl)piperazine-1-carboxylate] | 1.06
CC(C(=O)N1CCN(c2ncc(C(F)(F)F)cn2)CC1)c1c[nH]c(=O)c(C(F)(F)F)c1 (centres unmarked) [Example 60, 5-(1-Oxo-1-(4-(5-(trifluoromethyl)pyrimidin-2-yl)piperazin-1-yl)propan-2-yl)-3-(trifluoromethyl)pyridin-2(1H)-one] | 7.02
Cc1cc(Cc2c[nH]c(=O)c(C(F)(F)F)c2)cc(C(=O)N2CCN(c3ncc(C(F)(F)F)cn3)CC2)c1 [Example 61, 5-(3-Methyl-5-(4-(5-(trifluoromethyl)pyrimidin-2-yl)piperazine-1-carbonyl)benzyl)-3-(trifluoromethyl)pyridin-2(1H)-one] | 0.72
CC(Cc1c[nH]c(=O)c(C(F)(F)F)c1)OC(=O)N1CCN(c2ccc(C(F)(F)F)cn2)CC1 (centres unmarked) [Example 62, 1-(6-Oxo-5-(trifluoromethyl)-1,6-dihydropyridin-3-yl)propan-2-yl 4-(5-(trifluoromethyl)pyridin-2-yl)piperazine-1-carboxylate] | 2.09
CC(Cc1c[nH]c(=O)c(C(F)(F)F)c1)OC(=O)N1CCN(c2ncc(Br)cn2)CC1 (centres unmarked) [Example 63, 1-(6-Oxo-5-(trifluoromethyl)-1,6-dihydropyridin-3-yl)propan-2-yl 4-(5-bromopyrimidin-2-yl)piperazine-1-carboxylate] | 3.12
CC(Cc1c[nH]c(=O)c(C(F)(F)F)c1)OC(=O)N1CCN(c2ccc(C#N)cn2)CC1 (centres unmarked) [Example 64, 1-(6-Oxo-5-(trifluoromethyl)-1,6-dihydropyridin-3-yl)propan-2-yl 4-(5-cyanopyridin-2-yl)piperazine-1-carboxylate] | 1.99
C[C@@H](Cc1c[nH]c(=O)c(C(F)(F)F)c1)OC(=O)N1CCN(c2ncc(F)cn2)CC1 [Example 65, (S)-1-(6-Oxo-5-(trifluoromethyl)-1,6-dihydropyridin-3-yl)propan-2-yl 4-(5-fluoropyrimidin-2-yl)piperazine-1-carboxylate] | 0.65
C[C@@H](Cc1c[nH]c(=O)c(C(F)(F)F)c1)OC(=O)N1CC[C@H](Nc2ncc(C(F)(F)F)cn2)C1 [Example 66, (S)-1-(6-Oxo-5-(trifluoromethyl)-1,6-dihydropyridin-3-yl)propan-2-yl (S)-3-((5-(trifluoromethyl)pyrimidin-2-yl)amino) pyrrolidine-1-carboxylate] | 1.82
Cc1cc(CC(C)OC(=O)N2CCN(c3ncc(C(F)(F)F)cn3)CC2)c[nH]c1=O (centres unmarked) [Example 67, 1-(5-Methyl-6-oxo-1,6-dihydropyridin-3-yl)propan-2-yl 4-(5-(trifluoromethyl)pyrimidin-2-yl)piperazine-1-carboxylate] | 0.76
O=C(c1ccc(F)c(Cc2c[nH]c(=O)c(C(F)(F)F)c2)c1)N1CCN(c2ncc(C(F)(F)F)cn2)CC1 [Example 68, 5-(2-Fluoro-5-(4-(5-(trifluoromethyl)pyrimidin-2-yl)piperazine-1-carbonyl)benzyl)-3-(trifluoromethyl)pyridin-2(1H)-one] | 1.11
C[C@@H](Cc1c[nH]c(=O)c(C(F)(F)F)c1)OC(=O)N1CCC(Nc2ncc(C(F)(F)F)cn2)CC1 [Example 72, (S)-1-(6-Oxo-5-(trifluoromethyl)-1,6-dihydropyridin-3-yl)propan-2-yl 4-((5-(trifluoromethyl)pyrimidin-2-yl)amino) piperidine-1-carboxylate] | 4.98
C[C@@H](Cc1c[nH]c(=O)c(C(F)(F)F)c1)OC(=O)N1CCN(c2ncc(C(F)(F)F)cn2)[C@@H](CO)C1 [Example 73, (S)-1-(6-Oxo-5-(trifluoromethyl)-1,6-dihydropyridin-3-yl)propan-2-yl (R)-3-(hydroxymethyl)-4-(5-(trifluoromethyl)pyrimidin-2-yl)piperazine-1-carboxylate] | 0.75
C[C@@H](Cc1c[nH]c(=O)c(C(F)(F)F)c1)OC(=O)N1CCN(c2ncc(CO)cn2)CC1 [Example 75, (S)-1-(6-Oxo-5-(trifluoromethyl)-1,6-dihydropyridin-3-yl)propan-2-yl 4-(5-(hydroxymethyl)pyrimidin-2-yl)piperazine-1-carboxylate] | 0.83
C[C@@H](Cc1c[nH]c(=O)c(C(F)(F)F)c1)OC(=O)N1CCN(c2cnc(C#N)cn2)CC1 [Example 76, (S)-1-(6-Oxo-5-(trifluoromethyl)-1,6-dihydropyridin-3-yl)propan-2-yl 4-(5-cyanopyrazin-2-yl)piperazine-1-carboxylate] | 0.67
C[C@@H](Cc1c[nH]c(=O)c(C(F)(F)F)c1)OC(=O)N1CC2CN(c3ncc(C(F)(F)F)cn3)CC2C1 (stereo partly drawn) [Example 77, (S)-1-(6-Oxo-5-(trifluoromethyl)-1,6-dihydropyridin-3-yl)propan-2-yl 5-(5-(trifluoromethyl)pyrimidin-2-yl) hexahydropyrrolo[3,4-c]pyrrole-2(1H)-carboxylate] | 2.15
